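Growth conditions: 96-well plates. Treatment: test compound, 48 hours, 5 concentrations. Analysis: linear interpolation between bracketing concentrations; unreached endpoints set to highest concentration. TGI marks complete inhibition of growth.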
The compounds below were run on HOP-18 NSCLC (assay: NCI-60 cell line screen, 48 h).

| SMILES | TGI |
| --- | --- |
| COc1cc2c(cc1OC)C(O)[C@H](Br)C(C)(C)O2 (stereo partly specified) | > 100 µM |
| O=C(CCC/C(CC(=O)c1ccc(Br)cc1)=N\O)Nc1ccccc1 | > 100 µM |
| NC(CCC(=O)NC(CSC(=O)N(O)c1ccc(Br)cc1)C(=O)NCC(=O)O)C(=O)O (stereo unspecified) | > 100 µM |
| CCOC(=O)CCc1c(C)c2c(OC(C)=O)cc(OC(C)=O)cc2oc1=O | > 100 µM |

These compounds were tested on OVCAR-3 ovarian (assay: NCI-60 cell line screen, 48 h).

| SMILES | TGI |
| --- | --- |
| N#C/C(=C\c1ccc(O)c(O)c1)C(N)=O | 86.1 µM |
| COc1cc2c(cc1OC)C(O)[C@H](Br)C(C)(C)O2 (stereo partly specified) | > 100 µM |
| Cc1cn(C2CC(N(O)Cc3ccccc3)C(CO)O2)c(=O)[nH]c1=O (stereo unspecified) | > 100 µM |
| O=C(CCC/C(CC(=O)c1ccc(Br)cc1)=N\O)Nc1ccccc1 | > 100 µM |
| COc1c(C)c2c(c(C)c1Cl)Oc1c(C=O)c(O)c(Cl)c(C)c1C(=O)O2 | 30.8 µM |
| NC(CCC(=O)NC(CSC(=O)N(O)c1ccc(Br)cc1)C(=O)NCC(=O)O)C(=O)O (stereo unspecified) | > 100 µM |
| CCOC(=O)CCc1c(C)c2c(OC(C)=O)cc(OC(C)=O)cc2oc1=O | 83.3 µM |

These compounds were tested on SK-MEL-28 melanoma (assay: NCI-60 cell line screen, 48 h).

| SMILES | TGI |
| --- | --- |
| N#C/C(=C\c1ccc(O)c(O)c1)C(N)=O | > 100 µM |
| COc1cc2c(cc1OC)C(O)[C@H](Br)C(C)(C)O2 (stereo partly specified) | > 100 µM |
| Cc1cn(C2CC(N(O)Cc3ccccc3)C(CO)O2)c(=O)[nH]c1=O (stereo unspecified) | > 100 µM |
| O=C(CCC/C(CC(=O)c1ccc(Br)cc1)=N\O)Nc1ccccc1 | > 100 µM |
| NC(CCC(=O)NC(CSC(=O)N(O)c1ccc(Br)cc1)C(=O)NCC(=O)O)C(=O)O (stereo unspecified) | > 100 µM |
| CCOC(=O)CCc1c(C)c2c(OC(C)=O)cc(OC(C)=O)cc2oc1=O | > 100 µM |

The compounds below were run on SF-539 CNS (assay: NCI-60 cell line screen, 48 h).

| SMILES | TGI |
| --- | --- |
| N#C/C(=C\c1ccc(O)c(O)c1)C(N)=O | > 100 µM |
| COc1cc2c(cc1OC)C(O)[C@H](Br)C(C)(C)O2 (stereo partly specified) | > 100 µM |
| Cc1cn(C2CC(N(O)Cc3ccccc3)C(CO)O2)c(=O)[nH]c1=O (stereo unspecified) | > 100 µM |
| COc1c(C)c2c(c(C)c1Cl)Oc1c(C=O)c(O)c(Cl)c(C)c1C(=O)O2 | 39.7 µM |
| NC(CCC(=O)NC(CSC(=O)N(O)c1ccc(Br)cc1)C(=O)NCC(=O)O)C(=O)O (stereo unspecified) | > 100 µM |
| CCOC(=O)CCc1c(C)c2c(OC(C)=O)cc(OC(C)=O)cc2oc1=O | > 100 µM |

These compounds were tested on SK-OV-3 ovarian (assay: NCI-60 cell line screen, 48 h).

| SMILES | TGI |
| --- | --- |
| N#C/C(=C\c1ccc(O)c(O)c1)C(N)=O | > 100 µM |
| COc1cc2c(cc1OC)C(O)[C@H](Br)C(C)(C)O2 (stereo partly specified) | > 100 µM |
| Cc1cn(C2CC(N(O)Cc3ccccc3)C(CO)O2)c(=O)[nH]c1=O (stereo unspecified) | > 100 µM |
| COc1c(C)c2c(c(C)c1Cl)Oc1c(C=O)c(O)c(Cl)c(C)c1C(=O)O2 | > 100 µM |
| NC(CCC(=O)NC(CSC(=O)N(O)c1ccc(Br)cc1)C(=O)NCC(=O)O)C(=O)O (stereo unspecified) | > 100 µM |

The compounds below were run on RPMI-8226 leukemia (assay: NCI-60 cell line screen, 48 h).

| SMILES | TGI |
| --- | --- |
| N#C/C(=C\c1ccc(O)c(O)c1)C(N)=O | > 100 µM |
| COc1cc2c(cc1OC)C(O)[C@H](Br)C(C)(C)O2 (stereo partly specified) | > 100 µM |
| Cc1cn(C2CC(N(O)Cc3ccccc3)C(CO)O2)c(=O)[nH]c1=O (stereo unspecified) | > 100 µM |
| O=C(CCC/C(CC(=O)c1ccc(Br)cc1)=N\O)Nc1ccccc1 | > 100 µM |
| COc1c(C)c2c(c(C)c1Cl)Oc1c(C=O)c(O)c(Cl)c(C)c1C(=O)O2 | > 100 µM |
| NC(CCC(=O)NC(CSC(=O)N(O)c1ccc(Br)cc1)C(=O)NCC(=O)O)C(=O)O (stereo unspecified) | > 100 µM |

These compounds were tested on MCF7 breast (assay: NCI-60 cell line screen, 48 h).

| SMILES | TGI |
| --- | --- |
| NC(CCC(=O)NC(CSC(=O)N(O)c1ccc(Br)cc1)C(=O)NCC(=O)O)C(=O)O (stereo unspecified) | > 50 µM |

What follows are compounds tested on NCI-H522 lung (assay: NCI-60 cell line screen, 48 h).

| SMILES | TGI |
| --- | --- |
| N#C/C(=C\c1ccc(O)c(O)c1)C(N)=O | 53.3 µM |
| COc1cc2c(cc1OC)C(O)[C@H](Br)C(C)(C)O2 (stereo partly specified) | > 100 µM |
| COc1c(C)c2c(c(C)c1Cl)Oc1c(C=O)c(O)c(Cl)c(C)c1C(=O)O2 | 96.4 µM |
| NC(CCC(=O)NC(CSC(=O)N(O)c1ccc(Br)cc1)C(=O)NCC(=O)O)C(=O)O (stereo unspecified) | > 100 µM |
| CCOC(=O)CCc1c(C)c2c(OC(C)=O)cc(OC(C)=O)cc2oc1=O | > 100 µM |

What follows are compounds tested on SN12C renal (assay: NCI-60 cell line screen, 48 h).

| SMILES | TGI |
| --- | --- |
| N#C/C(=C\c1ccc(O)c(O)c1)C(N)=O | > 100 µM |
| COc1cc2c(cc1OC)C(O)[C@H](Br)C(C)(C)O2 (stereo partly specified) | > 100 µM |
| Cc1cn(C2CC(N(O)Cc3ccccc3)C(CO)O2)c(=O)[nH]c1=O (stereo unspecified) | > 100 µM |
| O=C(CCC/C(CC(=O)c1ccc(Br)cc1)=N\O)Nc1ccccc1 | > 100 µM |
| COc1c(C)c2c(c(C)c1Cl)Oc1c(C=O)c(O)c(Cl)c(C)c1C(=O)O2 | > 100 µM |
| NC(CCC(=O)NC(CSC(=O)N(O)c1ccc(Br)cc1)C(=O)NCC(=O)O)C(=O)O (stereo unspecified) | > 100 µM |

— PubChem BioAssay (NCI)
